Laboratory results reported in publication PMC9179336, “Therapeutic Validation of GEF-H1 Using a De Novo Designed Inhibitor in Models of Retinal Disease” (Cells, 2022).
Where no end group is shown, it is not given here.

What was measured:
HEK293 cells [1] = assay: LDH release (CytoTox-ONE), HEK293 cells; format: cell-based; conditions: overnight, increasing concentrations
Procedure: (§1) HEK293 and MDCK cells were seeded in triplicate wells and incubated overnight with the indicated concentration of TAT-P5 or TAT-F1. The next day 30 μL of medium was removed from each well and incubated with 30μL of CytoTox-ONE (Promega) reagent for 40 min. Fluorescence was then measured to assess LDH release. To assess Caspase 3/7 activity cells were assayed using Apo-ONE Homogenous Caspase-3/7 assay (Promega) according to manufactures instructions.
(§2) We next tested whether the inhibitors are toxic to cultured cells. MDCK and HEK293 cells were incubated with increasing concentrations of either TAT-F1 or TAT-P5 overnight before analysis of LDH release as a measure of necrosis or Caspase 3/7 activity to assess induction of apoptosis (Figure S2).
(§3) MDCK (A) and HEK 293 (B) cells were incubated overnight with TAT-F1 or TAT-P5 at the concentrations indicated. Cell toxicity was then assessed by measuring caspase 3/7 activity in cell extracts and release of LDH into the medium. No significant cell toxicity was observed.
(§4) (1 picture or pasted object on this page, not shown here)

MDCK cells [2] = assay: LDH release (CytoTox-ONE), MDCK cells; format: cell-based; conditions: overnight, increasing concentrations
Procedure: as §1, §2, §3, §4

HEK293 cells [3] = assay: Caspase 3/7 activity (Apo-ONE), HEK293 cells; format: cell-based; conditions: overnight, increasing concentrations
Procedure: as §1, §2, §3, §4

MDCK cells [4] = assay: Caspase 3/7 activity (Apo-ONE), MDCK cells; format: cell-based; conditions: overnight, increasing concentrations
Procedure: as §1, §2, §3, §4

[5] = system: RPE cells (TGFβ-stimulated); assay: RPE cell scratch wound migration assay; format: cell-based, porcine; conditions: 16 h

Row | Sequence | cytotoxicity, LDH release (necrosis), HEK293 (HEK293 cells [1]) | cytotoxicity, LDH release (necrosis), MDCK (MDCK cells [2]) | cytotoxicity, Caspase 3/7 activity (apoptosis), HEK293 (HEK293 cells [3]) | cytotoxicity, Caspase 3/7 activity (apoptosis), MDCK (MDCK cells [4]) | RPE cell migration (scratch closure), in words [5]
1 | GRKKRRQRRRPWQGQEDYDRLRPASYPDTDVI [TAT-P5] | Neither assay revealed an increase in cytotoxicity | Neither assay revealed an increase in cytotoxicity | Neither assay revealed an increase in cytotoxicity | Neither assay revealed an increase in cytotoxicity | –
2 | GRKKRRQRRRPWQDYIAEVPRSDYDLRPTGQD [TAT-scr, scrambled version of TAT-P5, negative control peptide] | – | – | – | – | had no effect
